Measurements: PubChem BioAssay (NCI)
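Assay format: 96-well plates, 48-hour exposure. GI50 = concentration required for 50% inhibition of growth. The concentration for full growth arrest is given as TGI.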

How the values were obtained:
Assay in all cases: NCI tumour cell line growth inhibition, 48 h
A549 NSCLC = tested on: A549 NSCLC
CCRF-CEM leukemia = tested on: CCRF-CEM leukemia
HL-60(TB) leukemia = tested on: HL-60(TB) leukemia
HS 578T breast = tested on: HS 578T breast
HT29 colon = tested on: HT29 colon
K-562 leukemia = tested on: K-562 leukemia
KM12 colon = tested on: KM12 colon
NCI-H226 lung = tested on: NCI-H226 lung
NCI-H522 lung = tested on: NCI-H522 lung
RPMI-8226 leukemia = tested on: RPMI-8226 leukemia
SN12C renal = tested on: SN12C renal

CS(C)(=O)=N/C=C\C(=O)C(Cl)(Cl)Cl
TGI (A549 NSCLC): > 100 µM | TGI (CCRF-CEM leukemia): > 100 µM | TGI (HL-60(TB) leukemia): > 100 µM | TGI (HS 578T breast): > 100 µM | TGI (HT29 colon): > 100 µM | TGI (K-562 leukemia): > 100 µM | TGI (KM12 colon): > 100 µM | TGI (NCI-H226 lung): > 100 µM | TGI (NCI-H522 lung): > 100 µM | TGI (RPMI-8226 leukemia): > 100 µM | TGI (SN12C renal): > 100 µM

C=C1CC(OC(C)=O)/C=C(/C)CCC(C(C)(C)O)CC1O (centres undefined)
TGI (A549 NSCLC): > 100 µM | TGI (CCRF-CEM leukemia): > 100 µM | TGI (HL-60(TB) leukemia): > 100 µM | TGI (HS 578T breast): > 100 µM | TGI (HT29 colon): > 100 µM | TGI (KM12 colon): > 100 µM | TGI (NCI-H226 lung): > 100 µM | TGI (NCI-H522 lung): > 100 µM | TGI (SN12C renal): > 100 µM

CCN(CC)CCN1C(=O)c2cccc3c(-c4ccc5c(c4)ncn5C4CCCCC4)ccc(c23)C1=O
GI50 (CCRF-CEM leukemia): 1.43 µM | TGI (CCRF-CEM leukemia): 11.6 µM | GI50 (HL-60(TB) leukemia): 1.95 µM | TGI (HL-60(TB) leukemia): 4.61 µM | GI50 (K-562 leukemia): 0.476 µM | TGI (K-562 leukemia): 3.97 µM | GI50 (KM12 colon): 1.52 µM | TGI (KM12 colon): 3.2 µM | GI50 (RPMI-8226 leukemia): 1.17 µM | TGI (RPMI-8226 leukemia): 3.53 µM | GI50 (SN12C renal): 1.27 µM | TGI (SN12C renal): 2.78 µM

C1CNCCN2CCCNCCN(C1)CC2
TGI (A549 NSCLC): > 100 µM | TGI (CCRF-CEM leukemia): 37.9 µM | TGI (HS 578T breast): > 100 µM | TGI (HT29 colon): > 100 µM | TGI (KM12 colon): > 100 µM | TGI (NCI-H226 lung): > 100 µM | TGI (NCI-H522 lung): > 100 µM | TGI (RPMI-8226 leukemia): > 100 µM | TGI (SN12C renal): > 100 µM

CC(C)OP(=O)(OC(C)C)C(C(F)(F)F)C(F)(F)F
TGI (A549 NSCLC): > 100 µM | TGI (CCRF-CEM leukemia): > 100 µM | TGI (HL-60(TB) leukemia): > 100 µM | TGI (HS 578T breast): > 100 µM | TGI (HT29 colon): > 100 µM | TGI (K-562 leukemia): > 100 µM | TGI (KM12 colon): > 100 µM | TGI (NCI-H226 lung): > 100 µM | TGI (NCI-H522 lung): > 100 µM | TGI (RPMI-8226 leukemia): > 100 µM | TGI (SN12C renal): > 100 µM

Cc1csc2c(P(=O)(OC(C)C)OC(C)C)c(-c3ccccc3)cn12
TGI (A549 NSCLC): 32.4 µM | TGI (CCRF-CEM leukemia): 37.2 µM | TGI (HL-60(TB) leukemia): 45.9 µM | TGI (HS 578T breast): 39.7 µM | TGI (HT29 colon): 29.2 µM | TGI (K-562 leukemia): 45.7 µM | TGI (KM12 colon): 30.6 µM | TGI (NCI-H522 lung): 30.7 µM | TGI (RPMI-8226 leukemia): 40.7 µM | TGI (SN12C renal): 32.1 µM

CN(c1c(Cl)cccc1Cl)S(=O)(=O)c1ccccc1[N+](=O)[O-]
TGI (A549 NSCLC): > 100 µM | TGI (HS 578T breast): > 100 µM | TGI (HT29 colon): > 100 µM | TGI (KM12 colon): > 100 µM | TGI (NCI-H226 lung): > 100 µM | TGI (NCI-H522 lung): > 100 µM | TGI (RPMI-8226 leukemia): > 100 µM | TGI (SN12C renal): > 100 µM

C#CCNC(=O)CCC(N)C(=O)O (centres undefined)
TGI (A549 NSCLC): > 100 µM | TGI (CCRF-CEM leukemia): > 100 µM | TGI (HL-60(TB) leukemia): > 100 µM | TGI (HT29 colon): > 100 µM | TGI (K-562 leukemia): > 100 µM | TGI (KM12 colon): > 100 µM | TGI (NCI-H226 lung): > 100 µM | TGI (NCI-H522 lung): > 100 µM | TGI (RPMI-8226 leukemia): > 100 µM | TGI (SN12C renal): > 100 µM

CN(C)c1nc(N(C)C)nc(N(C)CN(C)c2ccccc2)n1
TGI (A549 NSCLC): > 100 µM | TGI (CCRF-CEM leukemia): > 100 µM | TGI (HL-60(TB) leukemia): > 100 µM | TGI (HT29 colon): > 100 µM | TGI (K-562 leukemia): > 100 µM | TGI (KM12 colon): > 100 µM | TGI (NCI-H226 lung): > 100 µM | TGI (NCI-H522 lung): > 100 µM | TGI (SN12C renal): > 100 µM

CC(=O)OCC1C(C(C)OC(C)=O)CCC2C1CCC1(C)C(OC(C)=O)CCC21 (centres undefined)
TGI (A549 NSCLC): 39.4 µM | TGI (CCRF-CEM leukemia): 42.6 µM | TGI (HL-60(TB) leukemia): 52.6 µM | TGI (HT29 colon): 32.8 µM | TGI (K-562 leukemia): 36.8 µM | TGI (KM12 colon): 31.3 µM | TGI (NCI-H226 lung): 33.6 µM | TGI (NCI-H522 lung): 37.5 µM | TGI (RPMI-8226 leukemia): 69.9 µM | TGI (SN12C renal): 34.8 µM

CN(C)C(=S)Nc1nnc(NC23CC4CC(CC(C4)C2)C3)s1
TGI (A549 NSCLC): 36.5 µM | TGI (CCRF-CEM leukemia): 84.9 µM | TGI (HL-60(TB) leukemia): 31.9 µM | TGI (HT29 colon): 19.2 µM | TGI (K-562 leukemia): > 100 µM | TGI (KM12 colon): 46 µM | TGI (NCI-H226 lung): 38.4 µM | TGI (NCI-H522 lung): 34.9 µM | TGI (RPMI-8226 leukemia): 51.1 µM | TGI (SN12C renal): 38.1 µM

O=C1C=C2S[C@H]3C[C@]2(C=C1Br)c1c(c(O)c2c4c1=NCCC=4C=N2)N3
TGI (A549 NSCLC): 6.85 µM | TGI (HS 578T breast): 3.48 µM | TGI (HT29 colon): 1.55 µM | TGI (KM12 colon): 3.83 µM | TGI (NCI-H226 lung): 4.86 µM | TGI (NCI-H522 lung): 0.716 µM | TGI (SN12C renal): 2.48 µM

O=C(N=Nc1ccc([N+](=O)[O-])cc1)NNc1ccc([N+](=O)[O-])cc1
TGI (A549 NSCLC): > 100 µM | TGI (CCRF-CEM leukemia): 47.1 µM | TGI (HL-60(TB) leukemia): 46.9 µM | TGI (HT29 colon): 61.8 µM | TGI (K-562 leukemia): 45.8 µM | TGI (NCI-H226 lung): 51 µM | TGI (NCI-H522 lung): 33.1 µM | TGI (RPMI-8226 leukemia): 58.2 µM | TGI (SN12C renal): 40.5 µM

C=CCCCCOC1C=CC(OC(C)=O)C(COC(C)=O)O1 (centres undefined)
TGI (A549 NSCLC): > 100 µM | TGI (CCRF-CEM leukemia): > 100 µM | TGI (HL-60(TB) leukemia): > 100 µM | TGI (HS 578T breast): > 100 µM | TGI (HT29 colon): > 100 µM | TGI (KM12 colon): > 100 µM | TGI (NCI-H226 lung): > 100 µM | TGI (NCI-H522 lung): > 100 µM | TGI (RPMI-8226 leukemia): > 100 µM | TGI (SN12C renal): > 100 µM

NNC(N)=Nc1cccc2ccccc12
TGI (A549 NSCLC): > 100 µM | TGI (CCRF-CEM leukemia): > 100 µM | TGI (HL-60(TB) leukemia): > 100 µM | TGI (HS 578T breast): > 100 µM | TGI (HT29 colon): > 100 µM | TGI (K-562 leukemia): > 100 µM | TGI (KM12 colon): > 100 µM | TGI (NCI-H226 lung): > 100 µM | TGI (RPMI-8226 leukemia): > 100 µM | TGI (SN12C renal): > 100 µM

C=C1C(=O)OC2/C=C(\C)CC/C=C(/C)CC(OC(=O)/C(=C/CO)CO)C12 (centres undefined)
TGI (A549 NSCLC): > 100 µM | TGI (CCRF-CEM leukemia): > 100 µM | TGI (HL-60(TB) leukemia): 20.7 µM | TGI (HS 578T breast): > 100 µM | TGI (HT29 colon): 75.3 µM | TGI (K-562 leukemia): > 100 µM | TGI (KM12 colon): > 100 µM | TGI (NCI-H522 lung): 39.9 µM | TGI (RPMI-8226 leukemia): 72.7 µM

O=C(CC(=O)c1ccncc1)c1ccccc1
TGI (A549 NSCLC): > 100 µM | TGI (CCRF-CEM leukemia): > 41.8 µM | TGI (HS 578T breast): > 100 µM | TGI (HT29 colon): > 100 µM | TGI (K-562 leukemia): > 100 µM | TGI (KM12 colon): > 100 µM | TGI (NCI-H226 lung): > 100 µM | TGI (NCI-H522 lung): > 100 µM | TGI (RPMI-8226 leukemia): > 100 µM | TGI (SN12C renal): > 62.5 µM

COC(=O)N1CC[C@@H]2CCC=C(c3cccc4c3OCO4)[C@@H]21
TGI (A549 NSCLC): > 100 µM | TGI (CCRF-CEM leukemia): > 100 µM | TGI (HL-60(TB) leukemia): > 100 µM | TGI (HS 578T breast): > 100 µM | TGI (HT29 colon): > 100 µM | TGI (K-562 leukemia): > 100 µM | TGI (KM12 colon): > 100 µM | TGI (NCI-H226 lung): > 100 µM | TGI (NCI-H522 lung): > 100 µM | TGI (SN12C renal): > 100 µM

O=C(O)CC(NC(=O)C(F)(F)F)C(=O)NC1Cc2ccccc2OC1=O (centres undefined)
TGI (A549 NSCLC): > 100 µM | TGI (HS 578T breast): > 100 µM | TGI (HT29 colon): > 100 µM | TGI (K-562 leukemia): > 100 µM | TGI (KM12 colon): > 100 µM | TGI (NCI-H226 lung): > 100 µM | TGI (NCI-H522 lung): > 100 µM | TGI (RPMI-8226 leukemia): > 100 µM | TGI (SN12C renal): > 100 µM

COc1ccc2nc(-c3ccc(OC(=O)N(C)C)cc3)cn2c1
TGI (A549 NSCLC): > 100 µM | TGI (CCRF-CEM leukemia): > 100 µM | TGI (HL-60(TB) leukemia): > 100 µM | TGI (HS 578T breast): > 100 µM | TGI (HT29 colon): > 100 µM | TGI (K-562 leukemia): > 100 µM | TGI (KM12 colon): > 100 µM | TGI (NCI-H226 lung): > 100 µM | TGI (NCI-H522 lung): > 100 µM | TGI (SN12C renal): > 100 µM

CCCCCCc1nn2c(-c3ccc(C)cc3)nnc2s1
TGI (A549 NSCLC): > 100 µM | TGI (HS 578T breast): > 100 µM | TGI (HT29 colon): > 100 µM | TGI (K-562 leukemia): > 100 µM | TGI (KM12 colon): > 100 µM | TGI (NCI-H522 lung): > 100 µM | TGI (RPMI-8226 leukemia): > 100 µM | TGI (SN12C renal): > 100 µM

CSCCC(NC(=O)C(Cc1ccccc1)NC(=O)CNC(=O)CNC(=O)C(N)Cc1ccc(O)cc1)C(=O)O (centres undefined)
TGI (A549 NSCLC): > 100 µM | TGI (CCRF-CEM leukemia): > 100 µM | TGI (HL-60(TB) leukemia): > 100 µM | TGI (HT29 colon): > 100 µM | TGI (K-562 leukemia): > 100 µM | TGI (KM12 colon): > 100 µM | TGI (NCI-H522 lung): > 100 µM | TGI (SN12C renal): > 100 µM
